In patent publication US20230270724A1, “PDE3 inhibitors for treating viral infections” (priority 2020, published 2023):
“And” between values parts separate entries of the source, which are not always exact repeats. Equal values may be shown once. “Also recorded” adds a separate entry of the source.

Experiments:
pro-inflammation = conditions: patients with cardiopulmonary bypass surgery; antiviral activity maintained; cited from earlier work
SARS-CoV-2 = assay: Clinical case series: enoximone IV (Perfan) in COVID-19 patients at ICU admission, compared with prior control patients; conditions: for FiO2 / RESP. RATE: one value per patient; for RESP. SUPPORT: one value per patient 1-4
[1] = at the doses used, all patients
[2] = one value per enoximone-treated subject (1-4 = c4-c7)

In the case of CSc1ccc(C(=O)c2[nH]c(=O)[nH]c2C)cc1 [enoximone, 1,3-dihydro-4-methyl-5-[4-(methylthio)benzoyl]-2H-imidazol-2-on], the “effectiveness against pro-inflammation compared with methylprednisolone” value (pro-inflammation) is given as “as effective against pro-inflammation as methylprednisolone”, the “time after start of enoximone until breathing calmly and able to call” value (SARS-CoV-2; Patient 1, 20 mg IV then perfusion 10 mg/h, monosyllabic upon entry) is given as 10 min and the “time until calmer breathing and mobilisation” value (SARS-CoV-2; Patient 2, 20 mg IV then 10 mg/h) is given as “about 2 days”. The “time before the patient had lost the feeling of dyspnea” value (SARS-CoV-2; Patient 2, 20 mg IV then 10 mg/h, sputum retention) was 1 days, the “time until patient breathed optimally and Optiflow could be reduced to 0” value (SARS-CoV-2; Patient 3 (COPD Gold III), 20 mg IV then 10 mg/h) was “a day and a half” and the “time until able to breathe calmly and communicate normally” value (SARS-CoV-2; Patient 4, bolus then i.v. perfusor 5 mg/hour during 24 hours) was at most 10 min. The FiO2 (SARS-CoV-2; after 24 hrs of Enoximone) was 60% and 55% and 50%, the “RESP. RATE” value (SARS-CoV-2; after 24 hrs of Enoximone) was 15 and 12 and the “RESP. SUPPORT” value (SARS-CoV-2; after 24 hrs of Enoximone) was “none and Optiflow (3×)”. The FiO2 (SARS-CoV-2; after 48 hrs) was 60% and 50%, the “RESP. RATE” value (SARS-CoV-2; after 48 hrs) was 16 and 13 and the “RESP. SUPPORT” value (SARS-CoV-2; after 48 hrs) was “none (2×) and Optiflow (2×)”. The “persistence of beneficial effect” value (SARS-CoV-2; after discontinuation of enoximone, all patients) was “beneficial effect persisted even after discontinuation”, the adverse events (SARS-CoV-2; [1]) was “no clinically relevant adverse events were observed” and the tolerability (SARS-CoV-2; [1]) was “well-tolerated in all patients”. For the same molecule, the blood gas analysis (SARS-CoV-2; between before and 1 h after enoximone) was “minimal improvement in three out of four patients”, the “stay in ICU” value (SARS-CoV-2; enoximone-treated patients, controls 12-31 days) was 2 to 5 days and the “discharge from hospital after start of enoximone treatment” value (SARS-CoV-2; enoximone-treated patients, controls 18-44 days following start of mechanical ventilation) was 5 to 12 days. For the same molecule, the “overall stay in hospital” value (SARS-CoV-2; enoximone-treated patients, controls 22-46 days, Mann-Whitney U test p=0.05) was 13 to 15 days, the edema (SARS-CoV-2; following enoximone treatment) was “decrease of edema” and the oxygenation (SARS-CoV-2; following enoximone treatment (Table 3, FiO2%)) was “substantially improved”. The “need for mechanical ventilation” value (SARS-CoV-2; four enoximone-treated patients vs three controls, Fisher's exact test p=0.029) was “none of the enoximone-treated patients required mechanical ventilation; also recorded: no need for mechanical ventilation”, the symptomatic relief (SARS-CoV-2; four patients) was “rapid symptomatic relief in two out of four patients” and the Days mechanical ventilation (SARS-CoV-2; [2]) was 0 days. For the same molecule, the “Total days in hospital [=ii + iii + iv]” value (SARS-CoV-2; [2]) was 14 days and 13 days and 15 days, the “Total duration of disease (onset-discharge) [=i + ii + iii + iv)” value (SARS-CoV-2; [2]) was 19 and 20 and 26 and the “time to full recovery” value (SARS-CoV-2; patients 1 and 4) was “within a few hours”. It also gave a time to respond (SARS-CoV-2; patients 2 and 3 (comorbid obesity or COPD GOLD III), sputum retention) of 24 to 36 h.
